Values after ≈ are worked out from the molar mass of the structure shown.
Tests used:
Plasma [1] = experiment: Metabolic stability of the compound in Sprague Dawley rat plasma assessed as compound racemization rate at 5 uM after 4 hrs by UPLC analysis; format: ADME, cell-free
Plasma [2] = experiment: Metabolic stability of the compound in human plasma assessed as compound racemization rate at 5 uM after 4 hrs by UPLC analysis; format: ADME, cell-free
Plasma [3] = experiment: Metabolic stability of the compound in cynomolgus monkey plasma assessed as compound racemization rate at 5 uM after 4 hrs by UPLC analysis; format: ADME, cell-free, Macaca fascicularis
Plasma [4] = experiment: Metabolic stability of the compound in Beagle dog plasma assessed as compound racemization rate at 5 uM after 4 hrs by UPLC analysis; format: ADME, cell-free, Canis lupus familiaris
Plasma [5] = experiment: Metabolic stability of the compound in C57BL/6 mouse plasma assessed as compound racemization rate at 5 uM after 4 hrs by UPLC analysis; format: ADME, cell-free
[6] = Stability of the compound in aqueous buffer assessed as compound racemization rate at 5 uM at pH 6.8 after 4 hrs by UPLC analysis; format: physicochemical; settings: pH 6.8, 4 h
[7] = Stability of the compound in aqueous buffer assessed as compound racemization rate at 5 uM at pH 7.4 after 4 hrs by UPLC analysis; format: physicochemical; settings: pH 7.4, 4 h
[8] = Stability of the compound in methanol at room temperature assessed as compound racemization rate at 5 uM at pH 6.8 after 1 hr by UPLC analysis; format: physicochemical; settings: pH 6.8, 1 h
[9] = pampa, 4 h, 5 µM
physchem = settings: buffer, pH 6.8
[10] = Oral bioavailability in Sprague-Dawley rat at 3 mg/kg administered as solution measured up to 7 hrs by LC/MS/MS analysis; format: ADME, organism-based; settings: in vivo
Rattus norvegicus [11] = experiment: Dose normalized Cmax in Sprague-Dawley rat at 3 mg/kg, po administered as solution measured up to 7 hrs by LC/MS/MS analysis; format: ADME, organism-based; settings: in vivo
[12] = Tmax in Sprague-Dawley rat at 3 mg/kg, po administered as solution measured up to 7 hrs by LC/MS/MS analysis; format: ADME, organism-based; settings: in vivo
Rattus norvegicus [13] = experiment: Dose normalized AUC (0 to t) in Sprague-Dawley rat at 3 mg/kg, po administered as solution measured up to 7 hrs by LC/MS/MS analysis; format: ADME, organism-based; settings: in vivo
Rattus norvegicus [14] = experiment: Dose normalized AUC (0 to t) in Sprague-Dawley rat at 1 mg/kg, iv administered as solution measured up to 7 hrs by LC/MS/MS analysis; format: ADME, organism-based; settings: in vivo
[15] = Clearance in Sprague-Dawley rat at 3 mg/kg, po administered as solution measured up to 7 hrs by LC/MS/MS analysis; format: ADME, organism-based; settings: in vivo
[16] = Elimination half life in Sprague-Dawley rat at 1 mg/kg, iv or 3 mg/kg, po administered as solution measured up to 7 hrs by LC/MS/MS analysis; format: ADME, organism-based; settings: in vivo, read-out: beta t1/2 (converted)
Rattus norvegicus [17] = experiment: Dose normalized Cmax in Sprague-Dawley rat at 30 mg/kg, po administered as suspension measured up to 7 hrs by LC/MS/MS analysis; format: ADME, organism-based; settings: in vivo
[18] = Tmax in Sprague-Dawley rat at 30 mg/kg, po administered as suspension measured up to 7 hrs by LC/MS/MS analysis; format: ADME, organism-based; settings: in vivo
Rattus norvegicus [19] = experiment: Dose normalized AUC (0 to t) in Sprague-Dawley rat at 30 mg/kg, po administered as suspension measured up to 7 hrs by LC/MS/MS analysis; format: ADME, organism-based; settings: in vivo
Rattus norvegicus [20] = experiment: Dose normalized Cmax in Sprague-Dawley rat at 100 mg/kg, po administered as suspension measured up to 7 hrs by LC/MS/MS analysis; format: ADME, organism-based; settings: in vivo
[21] = Tmax in Sprague-Dawley rat at 100 mg/kg, po administered as suspension measured up to 7 hrs by LC/MS/MS analysis; format: ADME, organism-based; settings: in vivo
Rattus norvegicus [22] = experiment: Dose normalized AUC (0 to t) in Sprague-Dawley rat at 100 mg/kg, po administered as suspension measured up to 7 hrs by LC/MS/MS analysis; format: ADME, organism-based; settings: in vivo
Rattus norvegicus [23] = experiment: Dose normalized Cmax in Sprague-Dawley rat at 3 mg/kg, po administered as suspension measured up to 7 hrs by LC/MS/MS analysis; format: ADME, organism-based; settings: in vivo
[24] = Tmax in Sprague-Dawley rat at 3 mg/kg, po administered as suspension measured up to 7 hrs by LC/MS/MS analysis; format: ADME, organism-based; settings: in vivo
Rattus norvegicus [25] = experiment: Dose normalized AUC (0 to t) in Sprague-Dawley rat at 3 mg/kg, po administered as suspension measured up to 7 hrs by LC/MS/MS analysis; format: ADME, organism-based; settings: in vivo
[26] = Oral bioavailability in Beagle dog at 10 mg/kg administered as solution measured up to 7 hrs by LC/MS/MS analysis; format: ADME, organism-based, Canis lupus familiaris; settings: in vivo
Canis familiaris [27] = experiment: Dose normalized Cmax in Beagle dog at 10 mg/kg, po administered as solution measured up to 7 hrs by LC/MS/MS analysis; format: ADME, organism-based, Canis lupus familiaris; settings: in vivo
Canis familiaris [28] = experiment: Dose normalized AUC (0 to t) in Beagle dog at 10 mg/kg, po administered as solution measured up to 7 hrs by LC/MS/MS analysis; format: ADME, organism-based, Canis lupus familiaris; settings: in vivo
Canis familiaris [29] = experiment: Dose normalized AUC (0 to t) in Beagle dog at 0.3 mg/kg, iv administered as solution measured up to 7 hrs by LC/MS/MS analysis; format: ADME, organism-based, Canis lupus familiaris; settings: in vivo
[30] = Tmax in Beagle dog at 10 mg/kg, po administered as solution measured up to 7 hrs by LC/MS/MS analysis; format: ADME, organism-based, Canis lupus familiaris; settings: in vivo
[31] = Clearance in Beagle dog at 10 mg/kg, po administered as solution measured up to 7 hrs by LC/MS/MS analysis; format: ADME, organism-based, Canis lupus familiaris; settings: in vivo
[32] = Elimination half life in Beagle dog at 0.3 mg/kg, iv or 10 mg/kg, po administered as solution measured up to 7 hrs by LC/MS/MS analysis; format: ADME, organism-based, Canis lupus familiaris; settings: in vivo, read-out: beta t1/2 (converted)
Rattus norvegicus [33] = experiment: Clearance in Sprague-Dawley rat at 3 mg/kg, po administered as solution measured up to 7 hrs by LC/MS/MS analysis relative to hepatic blood flow; format: ADME, organism-based; settings: in vivo
Canis familiaris [34] = experiment: Clearance in Beagle dog at 10 mg/kg, po administered as solution measured up to 7 hrs by LC/MS/MS analysis relative to hepatic blood flow; format: ADME, organism-based, Canis lupus familiaris; settings: in vivo
Mus musculus [35] = species on record: Mus musculus; settings: in vivo, po, 3 mg/kg, 7 h
Mus musculus [36] = species on record: Mus musculus; settings: in vivo, po, 3 mg/kg
Mus musculus [37] = species on record: Mus musculus; settings: in vivo, iv, 1 mg/kg
in vivo [38] = settings: C57BL/6, mouse, po, 3 mg/kg
in vivo [39] = settings: C57BL/6, mouse, iv, 1 mg/kg
in vivo [40] = settings: C57BL/6, mouse

CC(C)c1ccc(N2CCc3cc(O)ccc3[C@@]2(C)c2ccc(/C=C/C(=O)O)cc2)cc1
Drug metabolism (Plasma [1]): Metabolite_Detected | Drug metabolism (Plasma [2]): Metabolite_Detected | Drug metabolism (Plasma [3]): Metabolite_Detected | Drug metabolism (Plasma [4]): Metabolite_Detected | Drug metabolism (Plasma [5]): Metabolite_Detected | Drug metabolism [6]: Metabolite_Detected | Drug metabolism [7]: Metabolite_Detected | Drug metabolism [8]: Metabolite_Detected

CC1(c2ccc(/C=C/C(=O)NCC(F)F)cc2)c2ccc(O)cc2CCN1c1ccc(F)cc1 (stereo not drawn)
log(permeability) [9]: -4.2 | solubility at 16 h (physchem): < 5 µM

CC(C)c1ccc(N2CCc3cc(O)ccc3[C@]2(C)c2ccc(/C=C/C(=O)O)cc2)cc1
Drug metabolism (Plasma [1]): Metabolite_Detected | Drug metabolism (Plasma [2]): Metabolite_Detected | Drug metabolism (Plasma [3]): Metabolite_Detected | Drug metabolism (Plasma [4]): Metabolite_Detected | Drug metabolism (Plasma [5]): Metabolite_Detected | Drug metabolism [6]: Metabolite_Detected | Drug metabolism [7]: Metabolite_Detected | Drug metabolism [8]: Metabolite_Detected

CC1(c2ccc(/C=C/C(=O)O)cc2)c2ccc(O)cc2CCN1c1cccc(F)c1 (stereo not drawn)
log(permeability) [9]: -4.3 | solubility at 16 h (physchem): 561 µM (≈ 226 µg/mL)

CC(C)c1ccc(N2CCc3cc(O)ccc3C2(C)c2ccc(/C=C/C(=O)O)cc2)cc1 (stereo not drawn)
bioavailability [10]: 60% | Cmax/dose (Rattus norvegicus [11]): 1199 nM | Tmax [12]: 0.3 h | AUCt/dose (Rattus norvegicus [13]): 1586 nM·h/mg | AUCt/dose (Rattus norvegicus [14]): 2627 nM·h/mg | CL/F [15]: 14.9 mL/min/kg | half-life [16]: 0.8 h | Cmax/dose (Rattus norvegicus [17]): 346 nM | Tmax [18]: 2 h | AUCt/dose (Rattus norvegicus [19]): 1125 nM·h/mg | Cmax/dose (Rattus norvegicus [20]): 202 nM | Tmax [21]: 1.5 h | AUCt/dose (Rattus norvegicus [22]): 918 nM·h/mg | Cmax/dose (Rattus norvegicus [23]): 602 nM | Tmax [24]: 0.3 h | AUCt/dose (Rattus norvegicus [25]): 955 nM·h/mg | bioavailability [26]: 56% | Cmax/dose (Canis familiaris [27]): 1311 nM | AUCt/dose (Canis familiaris [28]): 7994 nM·h/mg | AUCt/dose (Canis familiaris [29]): 14347 nM·h/mg | Tmax [30]: 1.2 h | CL/F [31]: 2.3 mL/min/kg | half-life [32]: 5 h | CL (Rattus norvegicus [33]): 27% | CL (Canis familiaris [34]): 7% | log(permeability) [9]: -4.1 | Cmax/dose (Mus musculus [35]): 2621 nM | AUC/dose (Mus musculus [36]): 4533 nM·h/mg | AUC/dose (Mus musculus [37]): 5808 nM·h/mg | bioavailability at 7 h (in vivo [38]): 78% | clearance at 7 h (in vivo [39]): 7 mL/min/kg | half-life at 7 h (in vivo [40]): 1.1 h | solubility at 16 h (physchem): 94 µM (≈ 40.2 µg/mL)
